Five molecules from PMC5608556, “Photo-affinity labelling and biochemical analyses identify the target of trypanocidal simplified natural product analogues” (PLoS Neglected Tropical Diseases, 2017) can be followed below.

In experiment [1] the test system is mitochondrial membrane potential (Δψm) in live PF T. brucei. Nature of the experiment: MitoTracker monitoring of mitochondrial membrane potential. The format is cell-based, Trypanosoma brucei. To be noted: 2 h, AA and OA 2 μM, DNP 1 mM. An excerpt:
To determine which mitochondrial complex of oxidative phosphorylation was targeted by B-THP-T compounds, their effects on the mitochondrial membrane potential (Δψm) were monitored in live PF T. brucei (Fig 6A). MitoTracker Red CMXRos, like tetramethylrhodamine and safranine, accumulates in active mitochondria and the degree of accumulation is dependent on the Δψm, however, accumulation of MitoTracker Green FM is independent of the Δψm and the ratio of red/green uptake can therefore be used to determine the Δψm normalised to the number and size of mitochondria present. […] Similarly, compounds 1 and 3 elevated the mitochondrial membrane potential (by 2-3-fold), confirming that they, like OA, reduce oxidative phosphorylation by the inhibition of the FoF1-ATP synthase.
Fig 6 Effects of compounds on mitochondrial membrane potential. PF T. brucei were incubated with inhibitors and MitoTracker Red CMXRos, which is an indicator of the mitochondrial membrane potential (Δψm). (A) MitoTracker-loaded cells were imaged to qualitatively detect differences in the Δψm. […] (B) Fluorescence of MitoTracker-loaded cells were quantified using a microplate reader and normalised to MitoTracker green fluorescence.
2 x 10^6 PF T. brucei cells were incubated in 1 mL GF-SDM-79 growth media supplemented with/without inhibitors for 2 h. B-THP-Ts were used at 40 μM, AA and OA at 2 μM, DNP at 1 mM and SHAM at 100 μM. MitoTracker Red CMXRos and MitoTracker Green FM were added to 100 nM and 1 μM respectively and incubated for a further 10 min. Cells were washed in growth medium and the MitoTracker reagents chased into the mitochondrion for 10 min in fresh growth medium supplemented with inhibitors. Cells were washed again in growth medium to remove unincorporated MitoTracker reagents, pelleted, suspended in 100 μL 4% PFA in PBS, and fixed at RT in the dark for 10 min. Fixed cells were pelleted and suspended in 100 μl PBS. Cells were transferred to poly-lysine-coated slides and mounted with DAPI-containing SlowFade mounting medium (Invitrogen). Fluorescence images were collected with a DeltaVision microscope (as detailed above) to show MitoTracker localisation and comparative intensity.
1 mL of cells at 1 x 10^7 cells/mL were labelled as above. However, instead of fixing cells they were resuspended in 200 μL growth medium and transferred to 96-well plates. Fluorescences were recorded (excitation at 540/35 nm, emission at 590/10 nm for MitoTracker Red CMXRos, and excitation at 485/20 nm, emission at 528/20 nm for MitoTracker Green FM) using a BioTek FLX800 spectrofluorimeter and Gen5 Reader Control 2.0 software, in much the same way as others have recorded previously. Background fluorescence values were subtracted from each and MitoTracker Red fluorescences normalised against their MitoTracker Green FM counterparts. Membrane potentials were then calculated relative to the uninhibited controls.

Experiment [2] concerns ATP production (oxidative phosphorylation) in digitonin-permeabilised PF T. brucei. The experiment is described as follows: ATP production assay in digitonin-permeabilised cells. Format: cell-based, Trypanosoma brucei. To be noted: 30 min; for Inhibition of ATP production from Gly-3P / Effect on ATP production from Gly-3P: glycerol-3-phosphate as substrate; for Inhibition of ATP production from Gly-3P / Effect on ATP production from succinate: compound 1, AA, OA 200 μM, DNP 1 mM; for Effect on ATP production from succinate: succinate 2.5 mM as substrate; for Effect on ATP production from succinate / Effect on ATP production from Gly-3P: malonate 5 mM, rotenone, SHAM 100 μM. The text has this:
We next sought to identify the point at which ATP production was blocked using digitonin-permeabilised cells. Digitonin permeabilises the plasma membrane of trypanosomatids, but crucially, leaves the glycosomes and mitochondria intact and fully functional, allowing them to be probed with compartment-specific ATP-yielding substrates. Digitonin-permeabilised PF T. brucei were probed with succinate, which is readily transported across the PF T. brucei mitochondrial membrane by the dicarboxylic acid carrier and can yield only oxidative phosphorylation-derived ATP through the FoF1-ATP synthase (complex V).
Fig 5 Inhibition of ATP production in digitonin-permeabilsed cells. (A-C) Digitonin-permeabilised PF T. brucei were probed with substrates in the presence of inhibitors and resulting ATP production quantified by bioluminescence assay. See experimental section for details. Inhibitors were used at saturating concentrations to ensure that relevant enzyme activities were ablated. Key: NS, no substrate; NI, no inhibitor; SHAM, salicylhydroxamic acid (TAO inhibitor at 100 μM); Rotenone (complex I inhibitor at 100 μM); Malonate (complex II inhibitor at 5 mM); AA, antimycin A (complex III inhibitor at 200 μM); OA, oligomycin A (complex V inhibitor at 200 μM); DNP, 2,4-dinitrophenol (protonophore at 1 mM); Comp.1, compound 1 at 200 μM. Background relative light units (RLU) were subtracted from measurements and % ATP production normalised to the no inhibitor control. Data were averaged from three independent experiments, each performed in quadruplicate. Error bars show standard deviations. T-tests were performed against no inhibitor controls (black asterisks) and compound 1 (grey open circles) and significance values presented: p < 0.00005 (*** / °°°), p < 0.0005 (** / °°), p < 0.005 (* / °). (A) Succinate was used as a substrate to generate ATP solely through oxidative phosphorylation (OxPhos). Oxidative phosphorylation inhibitors malonate, AA, OA and DNP virtually eliminated all ATP production. […] (B) α-ketoglutarate yields 40% ATP through substrate-level phosphorylation (SubPhos) and 60% through oxidative phosphorylation. Malonate, AA, OA and DNP inhibit oxidative phosphorylation, but not substrate-level phosphorylation. […] (C) Gly-3P acts as an alternative entry site to the electron transport chain yielding ATP through oxidative phosphorylation and the glycosome (GlyPhos). Malonate has no effect, as it acts at a different entry point. AA, OA and DNP inhibit oxidative phosphorylation, but not glycosomal phosphorylation.
ATP production assays were carried out in duplicate, and three independent assays were conducted. Cells were digitonin-permeabilised as previously described. Briefly, cells were washed in PBS and permeabilised for 5 min at a density of 1x10^8 cells/mL in SoTE buffer (20 mM Tris.HCl (pH 7.5), 2 mM EDTA pH 7.5, 600 mM sorbitol) supplemented with 0.015% (w/v) digitonin. Permeabilised cells were pelleted at 5000 g for 3 min at 4°C and suspended to 8.4x10^7 cells/mL in ATP assay buffer (20 mM Tris.HCl (pH 7.4), 15 mM KH2PO4, 0.6 M sorbitol, 10 mM MgSO4, 2.5 mg/mL fatty acid-free BSA.
ATP production assays were carried out in 75 μl volumes in 96-well plates with a final PF T. brucei cell density of 6.7 x 10^7 cells/mL as previously reported. […] B-THP-Ts, antimycin A (AA) and oligomycin A (OA) were used at 200 μM, Dinitrophenol (DNP) at 1 mM, malonate at 5 mM, rotenone at 100 μM and salicylhydroxamic acid (SHAM) at 100 μM. 59.25 μL digitonin-permeabilised cells (prepared above) were added to 0.75 μl inhibitor dissolved in DMSO (or 0.75 μL DMSO without inhibitor for no inhibitor control) and incubated for 10 min to allow inhibitors to take effect. Substrate was added to 2.5 mM and incubated for 10 min. Reactions were started with the addition of ADP to 60 μM and incubated at RT for 30 min. […]

For another experiment, the system named is HeLa. Nature of the experiment: Toxicity (EC50) in HeLa cells. Format: cell-based. To be noted: Homo sapiens, footnote b, read-out: EC50 values Mammal HeLa. An excerpt:
Fig 1 Labelling and detection of B-THP-T target(s). (A) Structures of chamuvarinin and simplified analogues thereof as probes used in this study and their respective toxicity in selected cell lines. Bi-functional compound 3 contains a diazirine (blue) to cross-link the compound to its target and an alkyne handle (red) to which an azide-containing reporter probe can be added. Mono-functional compound 2 contains the diazirine to cross-link to its target but lacks the alkyne handle and cannot be appended with an azide reporter probe. Lead B-THP-T, compound 1, lacks both diazirine and alkyne. The additional functional groups on compounds 2 and 3 are minor alterations, which have little effect on inhibitor potency. (B) Overview of the in vivo pulse-chase photo-affinity labelling procedure. B-THP-T were incubated with live PF T. brucei cells and trafficked to their targets. Following UV-irradiation, only compounds containing a diazirine (i.e. compounds 2 and 3) could cross-link with target proteins. The subsequent “click reaction” appended the conjugated B-THP-T with a reporter probe as long as an alkyne handle was present (i.e. on compound 3). Refer to the experimental section for details. (C) Detection of Cy5.5-tagged proteins following photo-affinity labelling. Proteins were separated by SDS-PAGE and conjugated Cy5.5 was detected at 700 nm. […]

The test system of another experiment is T. brucei PF. The experiment is described as follows: Toxicity (EC50, cell viability) in procyclic form T. brucei. The format is cell-based. To be noted: Trypanosoma brucei, live cells, 72 h incubation, footnote a. The text has this:
(§1) Fig 1 Labelling and detection of B-THP-T target(s). (A) Structures of chamuvarinin and simplified analogues thereof as probes used in this study and their respective toxicity in selected cell lines. Bi-functional compound 3 contains a diazirine (blue) to cross-link the compound to its target and an alkyne handle (red) to which an azide-containing reporter probe can be added. Mono-functional compound 2 contains the diazirine to cross-link to its target but lacks the alkyne handle and cannot be appended with an azide reporter probe. Lead B-THP-T, compound 1, lacks both diazirine and alkyne. The additional functional groups on compounds 2 and 3 are minor alterations, which have little effect on inhibitor potency. (B) Overview of the in vivo pulse-chase photo-affinity labelling procedure. B-THP-T were incubated with live PF T. brucei cells and trafficked to their targets. Following UV-irradiation, only compounds containing a diazirine (i.e. compounds 2 and 3) could cross-link with target proteins. The subsequent “click reaction” appended the conjugated B-THP-T with a reporter probe as long as an alkyne handle was present (i.e. on compound 3). Refer to the experimental section for details. (C) Detection of Cy5.5-tagged proteins following photo-affinity labelling. Proteins were separated by SDS-PAGE and conjugated Cy5.5 was detected at 700 nm. Lanes 1–3 correspond to usage of compounds 1–3 respectively. Several proteins in lane 3 were conjugated with Cy5.5 via labelling with bi-functional compound 3. […]
The potency of lead B-THP-T, compound 1, was determined against oxidative phosphorylation in dose-response assays in digitonin-permeabilised PF T. brucei.
Supplementary file pntd.0005886.s001.tiff: S1 Fig Dose-response of B-THP-T compounds in PF T. brucei. EC50 values were determined for compounds 1–3 in PF T. brucei. […]

The next experiment has as its system T. brucei BSF. The experiment is described as follows: Toxicity (EC50) in bloodstream form T. brucei. Format: cell-based, Trypanosoma brucei. To be noted: Trypanosoma brucei; bloodstream form; footnote b.
Text: as §1

One may read the EC50 as the midpoint of the concentration-response curve.

Turning to oligomycin A, the “Effect on mitochondrial membrane potential (Δψm)” value in experiment [1] is “elevates the Δψm”. Besides, in experiment [2], the “Inhibition of ATP production from Gly-3P” value is on record as 65 ± 21% and the “Effect on ATP production from succinate” value was “almost abolished ATP production”.

In the case of `OCCCC[C@H]1CC2(C[C@@H](Cn3cc([C@@H]4CCC[C@H](CCCCOCc5ccccc5)O4)nn3)O1)N=N2` [Compound 2, 4-((5S,7S)-7-((4-((2S,6S)-6-(4-(benzyloxy)butyl)tetrahydro-2H-pyran-2-yl)-1H-1,2,3-triazol-1-yl)methyl)-6-oxa-1,2-diazaspiro[2.5]oct-1-en-5-yl)butan-1-ol], the concentration giving a half-maximal response (EC50) with HeLa is 20.9 ± 3 µM; in the experiment on T. brucei PF, 8.9 ± 0.2 µM; in the experiment on T. brucei BSF, 11.8 ± 0.8 µM.

For the molecule `O=C(NO)c1ccccc1O` [salicylhydroxamic acid], in experiment [2], the “Effect on ATP production from Gly-3P” value is “no effect” and the “Effect on ATP production from succinate” value was “no significant effect”.

Consider `O=[N+]([O-])c1ccc(O)c([N+](=O)[O-])c1` [2,4-dinitrophenol], for which the “Effect on mitochondrial membrane potential (Δψm)” value in experiment [1] is recorded as “decrease the mitochondrial membrane potential”. In addition, in experiment [2], the “Inhibition of ATP production from Gly-3P” value was determined as 67 ± 13% and the “Effect on ATP production from succinate” value is on record as “almost abolished ATP production”.

Consider `C=C(C)[C@H]1Cc2c(ccc3c2O[C@@H]2COc4cc(OC)c(OC)cc4[C@@H]2C3=O)O1` [rotenone], for which, in experiment [2], the “Effect on ATP production from Gly-3P” value was “no effect” and the “Effect on ATP production from succinate” value is reported as “no significant effect”.
